Where two headings read alike, the source gives them in different places.
How the values were obtained:
human α4β2 [1] = target: T1, human α4β2 (Homo sapiens, UniProt P17787+P43681); test: Competition binding to human α4β2 nicotinic receptors in membrane preparations ([3H]-nicotine); settings: [3H]-nicotine competition, membranes
T1 construct: host or cells: SH-EP1

human α4β2 [2] = target: T1, human α4β2; test: Calcium flux functional assay, inhibition of nicotine response in SH-EP1-human α4β2 cells; format: cell-based; settings: nicotine 1 μM
Method: (§1) SH-EP1-human α4β2 (Eaton et al., 2003), SH-EP1-human α4β4 (Gentry et al., 2003) and SH-EP1-α6β3β4α5 (Grinevich at al., 2005) cell lines were obtained from Dr. Ron Lukas (Barrow Neurological Institute). The SH-EP1 cell lines, PC12, SH-SY5Y and TE671/RD cells were maintained in proliferative growth phase in Dulbecco's modified Eagle's medium (Invitrogen, Carlsbad, Calif.) with 10% horse serum (Invitrogen), 5% fetal bovine serum (HyClone, Logan Utah), 1 mM sodium pyruvate, 4 mM L-glutamine. For maintenance of stable transfectants, the α4β2 and α4β4 cell media was supplemented with 0.25 mg/mL zeocin and 0.13 mg/mL hygromycin B. Selection was maintained for the α6β3β4α5 cells with 0.25 mg/mL of zeocin, 0.13 mg/mL of hygromycin B, 0.4 mg/mL of geneticin, and 0.2 mg/mL of blasticidin.
(§2) Twenty-four to forty-eight hours prior to each experiment, cells were plated in 96 well black-walled, clear bottom plates (Corning, Corning, N.Y.) at 60-100,000 cells/well. On the day of the experiment, growth medium was gently removed, 200 μL 1×FLIPR Calcium 4 Assay reagent (Molecular Devices, Sunnyvale, Calif.) in assay buffer (20 mM HEPES, 7 mM TRIS base, 4 mM CaCl2, 5 mM D-glucose, 0.8 mM MgSO4, 5 mM KCl, 0.8 mM MgCl2, 120 mM N-methyl D-glucamine, 20 mM NaCl, pH 7.4 for SH-EP1-human α4β2 cells or 10 mM HEPES, 2.5 mM CaCl2, 5.6 mM D-glucose, 0.8 mM MgSO4, 5.3 mM KCl, 138 mM NaCl, pH 7.4 with TRIS-base for all other cell lines) was added to each well and plates were incubated at 37° C. for 1 hour (29° C. for the 29° C.-treated SH-EP1-human α4β2 cells). For inhibition studies, competitor compound (10 pM-10 μM) was added at the time of dye addition. The plates were removed from the incubator and allowed to equilibrate to room temperature. Plates were transferred to a FLIPR Tetra fluorometric imaging plate reader (Molecular Devices) for addition of compound and monitoring of fluorescence (excitation 485 nm, emission 525 nm). The amount of calcium flux was compared to both a positive (nicotine) and negative control (buffer alone). The positive control was defined as 100% response and the results of the test compounds were expressed as a percentage of the positive control. For inhibition studies, the agonist nicotine was used at concentrations of 1 μM for SH-EP1-human α4β2 and SH-EP1-human α4β4 cells, 10 μM for PC12 and SH-SY5Y cells, and 100 μM for TE671/RD cells.

Human Ganglion = target: T2, Human Ganglion (Homo sapiens, UniProt P30926+P32297); test: Calcium flux functional assay, inhibition of nicotine response at human ganglionic receptor subtype; format: cell-based; settings: read-out: Human Ganglion Ca Flux Imax
T2 construct: Human Ganglion Ca Flux IC50; Human Ganglion Ca Flux Imax
Method: as §1, §2

[3] = 29C/HS (29° C.-treated SH-EP1-human α4β2 cells), read-out: Human α4β2 Ca Flux IC50 [29C/HS]
[4] = 29C/HS (29° C.-treated SH-EP1-human α4β2 cells), read-out: Human α4β2 Ca Flux Imax [29C/HS]
[5] = 37C/LS, read-out: Human α4β2 Ca Flux IC50 [37C/LS]
[6] = 37C/LS, read-out: Human α4β2 Ca Flux Imax [37C/LS]
[7] = 29C/HS (29° C.-treated SH-EP1-human α4β2 cells)

Row | SMILES | Ki (human α4β2 [1]; Human α4β2 Ki) | IC50 (human α4β2 [2]; [3]) | Emax (human α4β2 [2]; [4]) | IC50 (human α4β2 [2]; [5]) | Emax (human α4β2 [2]; [6]) | Emax (Human Ganglion) | Ki (human α4β2 [1]; read-out: Human α4β2 Ki) | Human α4β2 Ca Flux Imax [29C/HS] (human α4β2 [2]; [7]) | Human α4β2 Ca Flux Imax [37C/LS] (human α4β2 [2]; 37C/LS) | IC50 (human α4β2 [2]; Human α4β2 Ca Flux IC50 [37C/LS], 37C/LS)
1 | CNC1C2CCC(C2)C12CC2 (stereo not drawn) | 540 nM | 2100 nM | 97% | 570 nM | 93% | 93% | – | – | – | –
2 | CN(C)C1C2(CCC2)[C@@H]2CC[C@@]1(C)C2(C)C (stereo partly drawn) [drawing 37] | – | 1100 nM | 96% | 280 nM | 95% | 95% | 3200 nM | – | – | –
3 | CNC1(C)C2CCC(C2)C12CCCC2 (stereo not drawn) | – | 1100 nM | 99% | 120 nM | 100% | 96% | > 10000 nM | – | – | –
4 | CN[C@@]1(C)[C@@H]2CC[C@@H](C2)C12CCC2 (single isomer, unassigned) [drawing 30] | – | – | – | – | – | – | > 10000 nM | 98 % inh | 94 % inh | –
5 | CNC1C2(CCC2)[C@H]2CC[C@]1(C)C2(C)C (stereo partly drawn) [drawing 32] | – | 710 nM | – | 430 nM | – | – | 5600 nM | 98 % inh | 96 % inh | –
6 | CN(C)C1C2(CCC2)[C@@H]2CC[C@@]1(C)C2(C)C (stereo partly drawn) [drawing 38] | – | 740 nM | – | 380 nM | – | – | 2600 nM | 95 % inh | 95 % inh | –
7 | C1CCN(C2C3CCC(C3)C23CCC3)C1 (stereo not drawn) | – | 1400 nM | 90% | – | 96% | 79% | 3800 nM | – | – | 59 nM
8 | CN(C)C1C2CCC(C2)C12CCC2 (stereo not drawn) | – | 1800 nM | 98% | 620 nM | 98% | 98% | 2600 nM | – | – | –
9 | CN(C)C1C2(CCC2)[C@H]2CC[C@]1(C)C2(C)C (stereo partly drawn) [drawing 36] | – | 140 nM | – | 350 nM | – | – | > 10000 nM | 96 % inh | 95 % inh | –
10 | CNC1(C)C2CCC(CC2)C12CCCC2 (stereo not drawn) | – | – | – | 400 nM | 95% | 92% | 300 nM | – | – | –
11 | CNC1(C)C2CCC(C2)C12CC2 (stereo not drawn) | – | 380 nM | 97% | 120 nM | 93% | 98% | > 10000 nM | – | – | –
12 | CNC1C2(CCC2)[C@H]2CC[C@]1(C)C2(C)C (stereo partly drawn) [drawing 31] | – | 1300 nM | 99% | 498 nM | 96% | 97% | > 10000 nM | – | – | –
13 | CN(C)C1C2(CCC2)[C@H]2CC[C@]1(C)C2(C)C (stereo partly drawn) [drawing 35] | – | 540 nM | 96% | 520 nM | 97% | 98% | > 10000 nM | – | – | –
14 | CNC1C2(CCC2)[C@@H]2CC[C@@]1(C)C2(C)C (stereo partly drawn) [drawing 34] | – | 310 nM | – | 270 nM | – | – | > 10000 nM | 97 % inh | 93 % inh | –
15 | CNC1C2(CCC2)[C@@H]2CC[C@@]1(C)C2(C)C (stereo partly drawn) [drawing 33] | – | 1000 nM | 97% | 600 nM | 95% | 95% | > 10000 nM | – | – | –
16 | CNC1C2CCC(C2)C12CCC2 (stereo not drawn) | > 10000 nM | 1000 nM | 99% | 500 nM | 97% | 97% | – | – | – | –
17 | CN[C@@]1(C)[C@@H]2CC[C@@H](C2)C12CCC2 (racemic) | – | – | 98% | – | 95% | 93% | 8700 nM | – | – | –
18 | CN[C@@]1(C)[C@@H]2CC[C@@H](C2)C12CCC2 (single isomer, unassigned) [drawing 29] | – | – | – | – | – | – | > 10000 nM | 98 % inh | 96 % inh | –
19 | C1CN(C2C3CCC(C3)C23CCC3)C1 (stereo not drawn) | – | 1400 nM | 96% | 740 nM | 98% | 89% | – | – | – | –

From patent publication US10716770B2, “Nicotinic receptor non-competitive antagonists” (Catalyst Biosciences, Inc., priority 2010, dated 2020)
